Measurements published in ChEMBL document CHEMBL1145265, “Chiral discrimination in binding of enantiomers of 2-(aminoalkoxy)-substituted 4-(2-thienyl)pyrimidines and 4,6-bis(2-thienyl)pyrimidines with duplex DNA” (Bioorg Med Chem Lett, 2005).

test system: Calf thymus DNA; assay: Ratio of binding constant of S-enantiomer and R-enantiomer towards sonicated calf thymus DNA; assay type: nucleic-acid assay; details: Bos taurus

Point of comparison: `CC(N)COc1nc(-c2cccs2)cc(-c2cccs2)n1` (configuration not stated), Ratio 1.2. Against it:
- NCCOc1nc(-c2cccs2)cc(-c2cccs2)n1 — higher, 2.7
- CC(C)C(N)COc1nc(-c2cccs2)cc(-c2cccs2)n1 (configuration not stated) — higher, 2.2
- Cc1c(-c2cccs2)nc(OCCN)nc1-c1cccs1 — higher, 2.2
- Cc1c(-c2cccs2)nc(OCC2CCCN2)nc1-c1cccs1 (configuration not stated) — higher, 1.8
- Cc1c(-c2cccs2)nc(OCC(C)N)nc1-c1cccs1 (configuration not stated) — higher, 1.5
- Cc1cnc(OCC2CCCN2)nc1-c1cccs1 (configuration not stated) — higher, 1.4
- c1csc(-c2cc(-c3cccs3)nc(OCC3CCCN3)n2)c1 (configuration not stated) — higher, 2.4
- Cc1cnc(OCC(N)C(C)C)nc1-c1cccs1 (configuration not stated) — higher, 1.6
- Cc1c(-c2cccs2)nc(OCC(N)C(C)C)nc1-c1cccs1 (configuration not stated) — higher, 1.5
- CCC(N)COc1nc(-c2cccs2)cc(-c2cccs2)n1 (configuration not stated) — higher, 1.4
- CCC(N)COc1nc(-c2cccs2)c(C)c(-c2cccs2)n1 (configuration not stated) — higher, 1.6
